# Entries after “also recorded” stand apart in the source; their conditions may differ.
# What was measured:
# IspA S81F = IspA S81F (Escherichia coli, UniProt P22939, S80F); assay type: biochemical; settings: DMAPP as starter unit
# IspA Y80D = IspA Y80D (Escherichia coli, UniProt P22939, Y79D); assay type: biochemical; settings: DMAPP as starter unit
# [1] = target: IspA, a farnesyl diphosphate synthase (FPPase) (Escherichia coli, UniProt P22939); settings: wild-type IspA
# [2] = target: T1, isopentenyl phosphate kinase (IPK) (Thermoplasma acidophilum, UniProt Q9HLX1); test: NADH-coupled kinetic assay of IPK; settings: IPK with monophosphorylated substrate, ± SD of the mean
# T1 sequence (Q9HLX1 1-245): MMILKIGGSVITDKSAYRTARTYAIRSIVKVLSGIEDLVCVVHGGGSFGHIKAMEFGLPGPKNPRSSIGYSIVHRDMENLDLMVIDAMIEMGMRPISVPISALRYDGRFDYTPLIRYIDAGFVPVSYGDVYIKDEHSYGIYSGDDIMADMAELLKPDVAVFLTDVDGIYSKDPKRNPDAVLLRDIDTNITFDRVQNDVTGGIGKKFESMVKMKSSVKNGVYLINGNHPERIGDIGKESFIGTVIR
# Protocol: The data was fitted to the Michaelis-Menten equation using SigmaPlot, and the kinetic parameters (kcat, Km, kcat/Km) extracted.
# NADH-Coupled Kinetic Assays. NADH coupled assays were performed with purified enzymes. Reaction progress was monitored by absorbance at 340 nm at 30° C. in a 96-well plate using a Biotek Synergy 4 plate reader (Winooski, Vt.). 200 μL enzymatic mixtures contained 50 mM Tris (pH 8.0), 25 mM KCl, 2.5 mM MgCl2, 0.05 mM DTT, 1 mM ATP, 320 μM NADH, 400 μM phosphoenolpyruvate, 0.5 U pyruvate kinase, 0.7 U lactate dehydrogenase, and various amounts of substrate. Conditions were verified by doubling enzyme and verifying the initial rate was doubled as well.
# Kinetics of IPK were done with purified enzyme using 0.09 μg of enzyme per well. Serial dilution was used to generate specific concentrations of substrates (3125, 1562, 781, 625, 391, 195, 98, 24, 12, and 3 μM). Each condition was performed in triplicate. Nonlinear regression was fitted using SigmaPlot (Systat Software Inc., San Jose, Calif., USA).
# Sequence of IspA, a farnesyl diphosphate synthase (FPPase) (P22939 whole entry): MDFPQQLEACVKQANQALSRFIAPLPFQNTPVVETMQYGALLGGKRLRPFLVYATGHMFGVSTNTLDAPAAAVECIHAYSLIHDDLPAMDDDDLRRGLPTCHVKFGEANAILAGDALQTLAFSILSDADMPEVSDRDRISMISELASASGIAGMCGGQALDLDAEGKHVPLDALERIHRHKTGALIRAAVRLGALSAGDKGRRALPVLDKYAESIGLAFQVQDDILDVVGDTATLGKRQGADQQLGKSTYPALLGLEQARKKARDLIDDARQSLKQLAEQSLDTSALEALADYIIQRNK
# Sequence of IspA S81F (P22939 whole entry S80F): as the sequence (P22939 whole entry) above, with S80F counted along it
# Sequence of IspA Y80D (P22939 whole entry Y79D): as the sequence (P22939 whole entry) above, with Y79D counted along it
structure (smiles),measurement,setting,value
CCC/C=C/COP(=O)(O)O [Substrate 29],"use as extender unit in place of IPP (conversion by LC-MS), words",IspA S81F,most efficient analogues
same,"use as extender unit in place of IPP (conversion by LC-MS), words",IspA Y80D,most efficient analogues
same,"use as extender unit in place of IPP (GPP analogue by LC-MS), words",[1]; DMAPP as starter unit,accepted by IspA; also recorded: most efficient analogues
same,"use as extender unit in place of IPP (FPP analogue by LC-MS), words",[1]; GPP as starter unit,almost as good as that with IPP; also recorded: accepted by IspA
same,kcat,[2],43.0 ± 17.8 s⁻¹
same,Km,"[2]; 1 mM ATP, 30° C.",6.83 ± 3.77 mM

# — patent US20220162188A1, “ISOPRENOIDS AND METHODS OF MAKING THEREOF” (NORTH CAROLINA STATE UNIVERSITY, priority 2019, published 2022)
